biological target: T1, aldehyde dehydrogenase (ADH) (Ketogulonicigenium vulgare, UniProt Q402A8); assay: Identification of the oxidation products; type: biochemical, Gluconobacter oxydans DSM No. 4025 (FERM BP-3812); settings: not given
T1 sequence (Q402A8 32-609): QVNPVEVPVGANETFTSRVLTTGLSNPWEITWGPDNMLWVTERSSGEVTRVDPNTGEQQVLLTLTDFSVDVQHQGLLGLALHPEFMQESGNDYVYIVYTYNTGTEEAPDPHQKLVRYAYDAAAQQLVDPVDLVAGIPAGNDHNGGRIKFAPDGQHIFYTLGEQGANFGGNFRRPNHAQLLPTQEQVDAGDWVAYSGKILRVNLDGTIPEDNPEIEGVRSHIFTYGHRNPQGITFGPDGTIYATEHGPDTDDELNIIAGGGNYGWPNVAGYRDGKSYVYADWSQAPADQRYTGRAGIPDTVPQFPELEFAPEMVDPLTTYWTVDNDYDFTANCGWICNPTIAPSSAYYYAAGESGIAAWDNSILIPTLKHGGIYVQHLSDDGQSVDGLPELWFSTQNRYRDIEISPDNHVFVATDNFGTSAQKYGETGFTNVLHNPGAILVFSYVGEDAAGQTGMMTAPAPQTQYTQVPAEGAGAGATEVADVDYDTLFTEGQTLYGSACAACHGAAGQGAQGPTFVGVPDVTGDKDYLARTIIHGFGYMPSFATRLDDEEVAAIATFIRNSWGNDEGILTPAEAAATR
Protocol: The reaction mixture containing the purified enzyme (1.56 mg), L-sorbosone (0.142 mg), PMS (0.008 mg) and PQQ (0.3 mg) in 40μl of the buffer was incubated for 1.5 hours at 30° C. The reaction product was analyzed on thin layer chromatography and HPLC. As a result, the reaction product was identified as 2-KGA in comparison with an authentic sample of 2-KGA.

Molecule | Product
O=C[C@H](O)[C@@H](O)[C@@H](O)[C@H](O)CO [D-Galactose] | D-Galactonic acid
O=C[C@@H](O)[C@@H](O)[C@H](O)[C@@H](O)CO [L-Gulose] | L-Gulonic acid

same assay, conditions: products of the oxidation of the substrates of Table 1A

Molecule | Product
O=C[C@@H](O)[C@H](O)[C@H](O)CO [D-Arabinose] | D-Arabonic acid
O=C[C@H](O)[C@@H](O)[C@H](O)[C@H](O)CO [D-Glucose] | D-Gluconate
O=CC(=O)[C@@H](O)[C@H](O)[C@H](O)CO [D-Glucosone] | 2-Keto-D-gluconic acid
O=C[C@@H](O)[C@@H](O)[C@H](O)[C@H](O)CO [D-Mannose] | D-Mannoic acid
O=C[C@H](O)[C@H](O)[C@H](O)CO [D-Ribose] | D-Ribonic acid
O=C[C@H](O)[C@@H](O)[C@H](O)CO [D-Xylose] | D-Xylonic acid
O=CC(=O)[C@@H](O)[C@H](O)[C@@H](O)CO [L-Sorbosone] | 2-KGA

same assay, conditions: purified enzyme, PMS, PQQ, 1.5 hours at 30 °C; thin layer chromatography and HPLC

Molecule | reaction product identified
O=CC(=O)[C@@H](O)[C@H](O)[C@@H](O)CO [L-Sorbosone] | 2-KGA

biological target: T1, aldehyde dehydrogenase (ADH); assay: Electron acceptor suitability for oxidation of L-sorbosone to 2-KGA; type: biochemical, Gluconobacter oxydans DSM No. 4025 (FERM BP-3812); settings: not given
Excerpt: This was affirmed by the failure of the enzyme to convert L-sorbosone to 2-KGA using oxygen as a possible electron acceptor. Furthermore, no oxygen consumption was detected in the reaction mixture as detected with a dissolved oxygen probe. […] However, other conventional electron acceptors can be utilized in conjunction with the enzyme of this invention. DCIP, PMS, ferricyanide and cytochrome c are preferred electron acceptors. There is no minimum amount of electron acceptor which must be present for at least some of the aldehyde substrate to be converted to its corresponding acid. However, the amount of substrate which can be oxidized depends on the amount of the particular electron acceptor and its electron accepting characteristics.

Molecule | suitability as electron acceptor
O=O [oxygen] | does not work

same assay, conditions: oxidation of L-sorbosone to 2-KGA by purified ADH

Molecule | suitability as electron acceptor
O=C1C=CC(=Nc2cc(Cl)c(O)c(Cl)c2)C=C1 [DCIP, 2,6-dichlorophenolindophenol] | oxidizes L-sorbosone to 2-KGA in the presence of electron acceptors
COS(=O)(=O)[O-].C[n+]1c2ccccc2nc2ccccc21 [PMS, phenazine methosulfate] | oxidizes L-sorbosone to 2-KGA in the presence of electron acceptors
cytochrome c | oxidizes L-sorbosone to 2-KGA in the presence of electron acceptors
nicotinamide adenine dinucleotide phosphate [NADP] | not suitable electron acceptors

biological target: T1, aldehyde dehydrogenase (ADH); assay: not given; type: biochemical, Gluconobacter oxydans DSM No. 4025 (FERM BP-3812); settings: not given
Protocol: The reaction was started at 25° C. with L-sorbosone, and the enzyme activity was measured as the initial reduction rate of DCIP at 600 nm. […] The extinction coefficience of DCIP at pH 8.0 was taken as 15 mM^−1. A reference cuvette contained all the above constituents except L-sorbosone.
The effects of metal ions and inhibitors on the activity of the enzyme were examined by measuring the activity using the same assay method as described under 1) above. Each compound solution was stirred into the basal reaction mixture and the reaction was started with the addition of the enzyme.

Molecule | Relative activity [%] | stimulation of enzyme activity | effect on enzyme activity (in words)
O.O.[Ca+2].[Cl-].[Cl-] [CaCl2.2H2O] | 204.5 | about 2 fold | –
O.O.O.O.O.O.[Cl-].[Cl-].[Co+2] [CoCl2.6H2O] | 76.0 | – | inhibited the enzyme activity
O=S(=O)([O-])[O-].[Cu+2] [CuSO4] | 0.0 | – | inhibited the enzyme activity
O=S(=O)([O-])[O-].O=S(=O)([O-])[O-].O=S(=O)([O-])[O-].[Fe+3].[Fe+3] [Fe2(SO4)3.xH2O] | 58.9 | – | inhibited the enzyme activity
[Cl-].[Cl-].[Mg+2] [MgCl2] | 90.3 | – | –
O=C(O)CI [Monoiodoacetate] | 52.2 | – | –
[F-].[Na+] [NaF] | 86.7 | – | –
[N-]=[N+]=[N-].[Na+] [NaN3] | 104.6 | – | –
O.O.O.O.O.O.O=S(=O)([O-])[O-].[Ni+2] [NiSO4.6H2O] | 74.9 | – | inhibited the enzyme activity
[Cl][Ti]([Cl])([Cl])[Cl] [TiCl4] | 128.0 | – | –
[Cl-].[Cl-].[Zn+2] [ZnCl2] | 40.3 | – | inhibited the enzyme activity

same assay, conditions: compound at 1.0 mM; None = 100.0

Molecule | Relative activity [%]
CCN1C(=O)C=CC1=O [N-Ethylmaleimide] | 110.8

biological target: T1, aldehyde dehydrogenase (ADH); assay: Prosthetic group: PQQ requirement of the purified enzyme; type: biochemical, Gluconobacter oxydans DSM No. 4025 (FERM BP-3812); settings: added to basal reaction mixture without PQQ

Molecule | effect of cofactor addition on enzyme activity
O=C(O)c1cc(C(=O)O)c2c(n1)C(=O)C(=O)c1cc(C(=O)O)[nH]c1-2 [PQQ, pyrroloquinoline quinone] | restored
